A short description of this series: physchem. Format: physicochemical. To be noted: fassif, pH 6.8, Solubility in FaSSIF µg/ml. The procedure: Compound solubility determination
An amount of 3 mg solid compound with LC-MS purity ≥ 95% was required. This amount was split between 3 different glass vials (1.8 ml volume each), placing 1 mg compound into each one.
Organic solvents of HPLC grade were used. Ultra pure water (Milli-Q grade) was used. Buffers were prepared with ultra pure water and filtered using 0.45 […] cameo filters. The compositions of each solvent employed in this assay are described below (part III).
For each of the three vial samples prepared as described above, in which the amount of compound was totally dissolved, the following procedure was subsequently carried out: • a) A small amount (approx. 0.1mg) of additional solid compound was added to the vial to maintain an excess of the compound in the mixture in the form of undissolved solid. • b) The samples were magnetically stirred for 24 hr. If required, additional solid compound (0.1mg) was added to maintain excess of it and then the samples were stirred again. • c) Then the samples were filtered (Millipore Milex filters nylon 0.2 um) and three aliquots were taken (one from each of the three vials) and analysed by LC-MS. • d) The pH of the final solution in each sample was measured with a pH-meter (WTW pH330i and a pH-electrode Sentix 41).
All filtered aliquots were analysed by LC-MS. […]

Solubility data for two compounds are collected here from patent EP1862459A1, “Novel heterocyclic compounds” (GLAXO GROUP LIMITED, priority 2006, dated 2007).

Values after ≈ are worked out from the molar mass of the structure shown.

In general, solubility refers to the concentration that dissolves in the medium under given conditions. Low values mean little dissolved substance, high ones much dissolved substance. `CC1=C(Cl)C(=O)C(CO)(c2ccc(Oc3ccc(OC(F)(F)F)cc3)cc2)CN1` (centres unmarked) [Example 1, 3-Chloro-5-(hydroxymethyl)-2-methyl-5-[4-({4-[(trifluoromethyl)oxy]phenyl}oxy)phenyl]-4(1H)-pyridinone] showed a solubility of 1 to 5 µg/mL (≈ 2.34 to 11.7 µM). Turning to `Cc1[nH]c(C=NO)c(-c2ccc(Oc3ccc(OC(F)(F)F)cc3)cc2)c(=O)c1Cl` [Example 5, 5-Chloro-6-methyl-4-oxo-3-[4-({4-[(trifluoromethyl)oxy]phenyl}oxy)phenyl]-1,4-dihydro-2-pyridinecarbaldehyde oxime], the solubility was 5 to 10 µg/mL (≈ 11.4 to 22.8 µM).
